The assay relates to L1210 leukemia ip in BDF1 mice, survival T/C. Description: NCI In Vivo Anticancer Drug Screen. Data for tumor model L1210 Leukemia (intraperitoneal) in B6D2F1 (BDF1) mice. The settings on record: endpoint: mean survival time, higher = longer survival. In outline: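 Transplantable tumor model; survival measured in treated vs vehicle control mice. Value = treated/control.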
The mark [1] stands for this setting: dose: 100.0 mg/kg/injection, schedule: Q01DX009 (ip), vehicle: saline.
Where [2] appears, read: dose: 100.0 mg/kg/injection, schedule: Q04DX003 (ip), vehicle: saline.
Where [3] appears, read: dose: 200.0 mg/kg/injection, schedule: Q01DX009 (ip), vehicle: saline.
Setting [4] is: dose: 200.0 mg/kg/injection, schedule: Q04DX003 (ip), vehicle: saline.
The mark [5] stands for this setting: dose: 100.0 mg/kg/injection, schedule: Q01DX009 (ip), vehicle: saline with Tween-80.
[6] abbreviates: dose: 100.0 mg/kg/injection, schedule: Q04DX003 (ip), vehicle: saline with Tween-80.
[7] abbreviates: dose: 200.0 mg/kg/injection, schedule: Q04DX003 (ip), vehicle: saline with Tween-80.
The mark [8] stands for this setting: dose: 400.0 mg/kg/injection, schedule: Q04DX003 (ip), vehicle: saline with Tween-80.
Where [9] appears, read: dose: 100.0 mg/kg/injection, schedule: Q04DX003 (ip), vehicle: Klucel (hydroxypropylcellulose) (HPC).
The mark [10] stands for this setting: dose: 200.0 mg/kg/injection, schedule: Q04DX003 (ip), vehicle: Klucel (hydroxypropylcellulose) (HPC).
[11] abbreviates: dose: 400.0 mg/kg/injection, schedule: Q04DX003 (ip), vehicle: Klucel (hydroxypropylcellulose) (HPC).
Where [12] appears, read: dose: 100.0 mg/kg/injection, schedule: Q01DX001 (ip), vehicle: saline.
[13] abbreviates: dose: 100.0 mg/kg/injection, schedule: Q01DX001 (ip), vehicle: carboxymethylcellulose (CMC).
[14] abbreviates: dose: 200.0 mg/kg/injection, schedule: Q01DX001 (ip), vehicle: carboxymethylcellulose (CMC).
The mark [15] stands for this setting: dose: 400.0 mg/kg/injection, schedule: Q01DX001 (ip), vehicle: carboxymethylcellulose (CMC).

Among the data in PubChem BioAssay AID248 (DTP/NCI, 2004) are T/C values, retold here.

SMILES strings stand for the structures. “And” between values parts separate entries of the source, which are not always exact repeats. Equal entries are not always repeated. Inconclusive results and toxic doses are left out.

Turning to `CC(C)N(CCN)C(C)C`, the T/C was 94 % of control (dose: 50.0 mg/kg/injection, schedule: Q01DX009 (ip), vehicle: saline); 103 % of control under setting [1]; 95 % of control under setting [2]; 103 % of control under setting [3]; 97 % of control under setting [4].
Take `COc1ccc(CN2CCN(Cc3ccc(OC)c(OC)c3)C2c2ccc(OC)c(OC)c2)cc1OC`: the T/C runs as follows: under setting [5], 94 % of control; under setting [6], 102 % of control; (dose: 200.0 mg/kg/injection, schedule: Q01DX009 (ip), vehicle: saline with Tween-80) 104 % of control; under setting [7], 93 % of control; (dose: 400.0 mg/kg/injection, schedule: Q01DX009 (ip), vehicle: saline with Tween-80) 108 % of control; under setting [8], 91 % of control.
For the compound `c1ccc([CH2][Sn]([c]2ccccc2)([c]2ccccc2)[c]2ccccc2)cc1`, the T/C (dose: 50.0 mg/kg/injection, schedule: Q01DX009 (ip), vehicle: Klucel (hydroxypropylcellulose) (HPC)) was 100 % of control; the T/C (dose: 100.0 mg/kg/injection, schedule: Q01DX009 (ip), vehicle: Klucel (hydroxypropylcellulose) (HPC)) is 104 % of control; the T/C under setting [9] was 101 % of control; the T/C (dose: 200.0 mg/kg/injection, schedule: Q01DX009 (ip), vehicle: Klucel (hydroxypropylcellulose) (HPC)) was 98 % of control; the T/C under setting [10] was 98 % of control; the T/C under setting [11] is 101 % of control.
For `CCC(c1ccc(OC)cc1)C(CC)c1ccc(OCCN2CCCC2)cc1` (configuration not stated), the T/C is 94 % of control (dose: 12.5 mg/kg/injection, schedule: Q01DX001 (ip), vehicle: saline); 94 % of control (dose: 25.0 mg/kg/injection, schedule: Q01DX001 (ip), vehicle: saline); 95 % of control (dose: 50.0 mg/kg/injection, schedule: Q01DX001 (ip), vehicle: saline); 97 % of control under setting [12].
Turning to `Cc1cc(N(CCOS(C)(=O)=O)CCOS(C)(=O)=O)ccc1C=Nc1ccccc1C(=O)O`, the T/C runs as follows: (dose: 2.5 mg/kg/injection, schedule: Q04DX003 (ip), vehicle: Klucel (hydroxypropylcellulose) (HPC)) 124 % of control; (dose: 5.0 mg/kg/injection, schedule: Q04DX003 (ip), vehicle: Klucel (hydroxypropylcellulose) (HPC)) 113 % of control; (dose: 10.0 mg/kg/injection, schedule: Q04DX003 (ip), vehicle: Klucel (hydroxypropylcellulose) (HPC)) 109 % of control; (dose: 40.0 mg/kg/injection, schedule: Q04DX003 (ip), vehicle: Klucel (hydroxypropylcellulose) (HPC)) 153 % of control.
For `Clc1ccc2nc(CI)c(CI)nc2c1`, the T/C runs as follows: (dose: 6.25 mg/kg/injection, schedule: Q01DX009 (ip), vehicle: acetone) 102 % of control; (dose: 12.5 mg/kg/injection, schedule: Q01DX009 (ip), vehicle: acetone) 102 % of control; (dose: 12.5 mg/kg/injection, schedule: Q04DX003 (ip), vehicle: acetone) 104 % of control; (dose: 25.0 mg/kg/injection, schedule: Q04DX003 (ip), vehicle: acetone) 96 % of control.
For the compound `C=CC1CN2CCC1CC2C(O)c1ccnc2ccccc12` (configuration not stated) (tested in a mixture with another compound), the T/C (dose: 25.0 mg/kg/injection, schedule: Q01DX009 (ip), vehicle: saline with Tween-80) is 101 % of control; the T/C (dose: 50.0 mg/kg/injection, schedule: Q01DX009 (ip), vehicle: saline with Tween-80) is 98 % of control; the T/C under setting [13] is 91 % of control; the T/C under setting [5] was 93 % of control; the T/C under setting [14] was 98 % of control; the T/C under setting [15] was 93 % of control.
Take `COC1OC(COC(=O)c2ccc([N+](=O)[O-])cc2)C2SC12` (configuration not stated): the T/C under setting [9] is 104 % of control, the T/C under setting [10] was 97 % of control and the T/C under setting [11] was 97 % of control.
`CS(=O)(=O)O`: the T/C under setting [1] was 102 % of control; the T/C under setting [2] is 108 % of control; the T/C under setting [3] was 93 % of control; the T/C under setting [4] was 98 % of control; the T/C (dose: 400.0 mg/kg/injection, schedule: Q01DX009 (ip), vehicle: saline) was 100 % of control; the T/C (dose: 400.0 mg/kg/injection, schedule: Q04DX003 (ip), vehicle: saline) was 109 % of control.
Turning to `COc1ccc(O)c(C(=O)c2cccc(OC)c2C#N)c1`, the T/C was 104 % of control (dose: 25.0 mg/kg/injection, schedule: Q04DX003 (ip), vehicle: carboxymethylcellulose (CMC)); 103 % of control (dose: 50.0 mg/kg/injection, schedule: Q01DX001 (ip), vehicle: carboxymethylcellulose (CMC)); 116 % of control (dose: 50.0 mg/kg/injection, schedule: Q04DX003 (ip), vehicle: carboxymethylcellulose (CMC)); 97 % of control under setting [13]; 99 % of control and 100 % of control (dose: 100.0 mg/kg/injection, schedule: Q01DX009 (ip), vehicle: carboxymethylcellulose (CMC)); 100 % of control and 91 % of control (dose: 100.0 mg/kg/injection, schedule: Q04DX002 (ip), vehicle: carboxymethylcellulose (CMC)). For the same compound, the T/C (dose: 100.0 mg/kg/injection, schedule: Q04DX003 (ip), vehicle: carboxymethylcellulose (CMC)) was 107 % of control and 86 % of control; the T/C under setting [14] was 99 % of control; the T/C (dose: 200.0 mg/kg/injection, schedule: Q01DX009 (ip), vehicle: carboxymethylcellulose (CMC)) is 97 % of control and 87 % of control; the T/C (dose: 200.0 mg/kg/injection, schedule: Q04DX002 (ip), vehicle: carboxymethylcellulose (CMC)) was 104 % of control and 108 % of control; the T/C under setting [15] is 99 % of control; the T/C (dose: 400.0 mg/kg/injection, schedule: Q01DX009 (ip), vehicle: carboxymethylcellulose (CMC)) was 110 % of control and 86 % of control. The T/C (dose: 400.0 mg/kg/injection, schedule: Q04DX002 (ip), vehicle: carboxymethylcellulose (CMC)) was 97 % of control and 90 % of control.
On to `OC(CN1CC1)C(O)CN1CC1` (configuration not stated), for which the T/C (dose: 0.06 mg/kg/injection, schedule: Q01DX Z (ip), vehicle: carboxymethylcellulose (CMC)) was 114 % of control; the T/C (dose: 0.4 mg/kg/injection, schedule: Q01DX Z (ip), vehicle: saline) was 100 % of control; the T/C (dose: 0.5 mg/kg/injection, schedule: Q01DX Z (ip), vehicle: carboxymethylcellulose (CMC)) is 200 % of control; the T/C (dose: 0.6 mg/kg/injection, schedule: Q01DX Z (ip), vehicle: saline) is 100 % of control; the T/C (dose: 0.9 mg/kg/injection, schedule: Q01DX Z (ip), vehicle: saline) was 95 % of control; the T/C (dose: 1.0 mg/kg/injection, schedule: Q01DX Z (ip), vehicle: carboxymethylcellulose (CMC)) is 90 % of control. Moreover, the T/C (dose: 1.3 mg/kg/injection, schedule: Q01DX Z (ip), vehicle: saline) was 95 % of control.
For the compound `CC1=C(/C=C/C(C)=C/C=C/C(C)=C/CO)C(C)(C)CCC1`, the T/C reads like this: (dose: 50.0 mg/kg/injection, schedule: Q01DX009 (ip), vehicle: steriod suspending solution) 90 % of control; (dose: 100.0 mg/kg/injection, schedule: Q01DX001 (ip), vehicle: other) 100 % of control; (dose: 100.0 mg/kg/injection, schedule: Q01DX009 (ip), vehicle: steriod suspending solution) 95 % of control; (dose: 150.0 mg/kg/injection, schedule: Q01DX001 (ip), vehicle: other) 98 % of control; (dose: 200.0 mg/kg/injection, schedule: Q01DX001 (ip), vehicle: other) 95 % of control and 102 % of control; (dose: 200.0 mg/kg/injection, schedule: Q01DX001 (sc), vehicle: steriod suspending solution) 101 % of control. The T/C (dose: 400.0 mg/kg/injection, schedule: Q01DX001 (sc), vehicle: steriod suspending solution) is 98 % of control.
For `O=C(COC(=O)c1ccccc1Br)c1ccc(-c2ccccc2)cc1`, the T/C under setting [12] was 94 % of control; the T/C (dose: 200.0 mg/kg/injection, schedule: Q01DX001 (ip), vehicle: saline) is 100 % of control; the T/C (dose: 400.0 mg/kg/injection, schedule: Q01DX001 (ip), vehicle: saline) was 91 % of control.
In the case of `COc1ccc(CCS(=O)(=O)N=[N+]=[N-])cc1`, the T/C runs as follows: under setting [6], 104 % of control; under setting [7], 116 % of control; under setting [8], 112 % of control.
